Results published in patent US5808165A, “β-diketones, processes for making β-diketones and use of β-diketones as stabilizers for PVC” (Rhone-Poulenc Chimie, priority 1992, dated 1998).
Values belong to the compound of their own block, whether it stands above or below them.

Assays:
[1] = Vapor pressure at 180° C.; assay type: physicochemical
Method: Study of the physico-chemical properties of the β-diketones
Table 1 gives the vapor pressures at 180° C., which is a typical temperature at which PVC is employed.

[2] = Physical state; assay type: physicochemical
[3] = Solubility in "one-pack" additive; assay type: physicochemical
[4] = Solubility in the principal constituents of an "all in one" additive; assay type: physicochemical; set-up: key: S: Mixture soluble; S1: Mixture soluble but viscous; S2: Mixture soluble but very viscous; I: Mixture insoluble
Text: Solubility in the principal constituents of an "all in one" additive
The purpose was to compare the behavior of a mixture based on a composition according to the invention with a mixture based on dibenzoylmethane, in preparing a mixture of stabilizing agents.
The mixtures were weighed in screw-capped bottles.
The bottles were placed in a shaking machine for agitation, for several hours.

[5] = Solubility in dioctyl phthalate, "DOP"; assay type: physicochemical
[6] = Solubility of dibenzoylmethane in solvents (comparative)
[7] = Odor during storage / under operating conditions in PVC; conditions: during storage of the composition or transformation of the PVC
Text: In addition, under operating conditions in PVC, the β-diketone compositions according to the present invention can release substantially no odor, in sharp contrast to closely related compounds.

[8] = Acute toxicity LD50 per os in the rat; conditions: in vivo, po
Text: Generally, toxicity increases or decreases linearly with the number of carbon atoms in the compound. […] Certain β-diketones, which are not a part of the present invention, have a toxicity which is non-negligible but low. […] In sharp contrast, the toxicity of the β-diketone compounds according to the present invention can be so low as to be not measurable.

Vapor pressure at 180° C. [1]: 4 mmHg
Physical state [2]: Liquid
Compound: Isononanoylacetophenone

Vapor pressure at 180° C. [1]: 1.5 mmHg
Physical state [2]: Liquid
Compound: Isoundecanoylacetophenone

Compound: O=C(CC(=O)c1ccccc1)c1ccccc1 [Dibenzoylmethane, dibenzoylmethane]
Solubility in "one-pack" additive ([3]; 3° C.): 5-9 g/100 g solvent
Solubility in "one-pack" additive ([3]; 23° C.): about 9 g/100 g solvent
Solubility in "one-pack" additive ([3]; -15° C.): < 5 g/100 g solvent
Vapor pressure at 180° C. [1]: 4 mmHg
Solubility of mixture ([4]; Ba 0, Zn 0, Phosphite 1/2, β-diketone 1/2): I
Solubility of mixture ([4]; Ba 0, Zn 0, Phosphite 1/3, β-diketone 2/3): I
Solubility of mixture ([4]; Ba 0, Zn 0, Phosphite 2/3, β-diketone 1/3): I
Solubility of mixture ([4]; Ba 0, Zn 1/2, Phosphite 0, β-diketone 1/2): I
Solubility of mixture ([4]; Ba 0, Zn 2/3, Phosphite 0, β-diketone 1/3): I
Solubility of mixture ([4]; Ba 1/4, Zn 1/4, Phosphite 1/4, β-diketone 1/4): I
Solubility of mixture ([4]; Ba 1/8, Zn 1/8, Phosphite 3/8, β-diketone 3/8): I
Solubility of mixture ([4]; Ba 1/10, Zn 2/10, Phosphite 5/10, β-diketone 2/10): I
Solubility of mixture ([4]; Ba 1/10, Zn 3/10, Phosphite 0, β-diketone 6/10): I
Solubility of mixture ([4]; Ba 1/10, Zn 3/10, Phosphite 3/10, β-diketone 3/10): I
Solubility in dioctyl phthalate, "DOP" ([5]; 3° C.): about 10 g/100 g solvent
Solubility in dioctyl phthalate, "DOP" ([5]; 23° C.): 10-20 g/100 g solvent
Physical state [2]: Solid
Solubility ([6]; Decalin, 3° C.): < 5 g/100 g solution
Solubility ([6]; Decalin, 25° C.): 5-10 g/100 g solution
Solubility ([6]; Dioctyl adipate, DOA, 3° C.): 10-20 g/100 g solution
Solubility ([6]; Dioctyl adipate, DOA, 25° C.): 20-30 g/100 g solution
Solubility ([6]; Dioctyl adipate, DOA, -15° C.): 5-10 g/100 g solution
Solubility ([6]; Dioctyl phthalate, DOP, 25° C.): 10-20 g/100 g solution
Solubility ([6]; Dioctyl phthalate, DOP, -15° C.): 5-10 g/100 g solution
Solubility ([6]; Diphenyl decyl phosphite, "OS 150", 25° C., only 10% and 20% solutions examined): < 10 g/100 g solution
Solubility ([6]; Epoxidized soy oil, ESO, 3° C., probably high (crystallization was slow)): 10-20 g/100 g solution
Solubility ([6]; Epoxidized soy oil, ESO, 25° C.): 10-20 g/100 g solution
Solubility ([6]; Epoxidized soy oil, ESO, -15° C.): < 1 g/100 g solution
Solubility ([6]; Octyl trimellitate, OTM, 25° C.): 10-20 g/100 g solution
Solubility ([6]; Octyl trimellitate, OTM, -15° C.): 5-10 g/100 g solution
Solubility ([6]; Phenyl didecyl phosphite, "OS 300", 3° C., only 10% and 20% solutions examined): 10-20 g/100 g solution
Solubility ([6]; Phenyl didecyl phosphite, "OS 300", 25° C., only 10% and 20% solutions examined): 10-20 g/100 g solution
Solubility ([6]; Phenyl didecyl phosphite, "OS 300", -15° C., only 10% and 20% solutions examined): < 10 g/100 g solution
Solubility ([6]; Phosphite of butylcarbitol and bisphenol A, 3° C., only 10% and 20% solutions examined): 10-20 g/100 g solution
Solubility ([6]; Phosphite of butylcarbitol and bisphenol A, 25° C., only 10% and 20% solutions examined): 10-20 g/100 g solution
Solubility ([6]; Phosphite of butylcarbitol and bisphenol A, -15° C., only 10% and 20% solutions examined): about 10 g/100 g solution
Solubility ([6]; Tetralin, 3° C.): 10-20 g/100 g solution
Solubility ([6]; Tetralin, 25° C.): 20-30 g/100 g solution
Solubility ([6]; Tetralin, -15° C.): < 10 g/100 g solution
Solubility ([6]; Tridecyl phosphite, "OS 330", 25° C., only 10% and 20% solutions examined): < 10 g/100 g solution
Solubility ([6]; Trilauryl phosphite, "OS 360", 25° C., only 10% and 20% solutions examined): < 10 g/100 g solution

Solubility in "one-pack" additive ([3]; 3° C.): > 18 g/100 g solvent
Solubility in "one-pack" additive ([3]; 23° C.): > 18 g/100 g solvent
Solubility in "one-pack" additive ([3]; -15° C.): > 18 g/100 g solvent
Vapor pressure at 180° C. [1]: 7 mmHg
Solubility in dioctyl phthalate, "DOP" ([5]; 3° C.): > 100 g/100 g solvent
Solubility in dioctyl phthalate, "DOP" ([5]; 23° C.): > 100 g/100 g solvent
Solubility in dioctyl phthalate, "DOP" ([5]; -15° C.): 50-100 g/100 g solvent
Physical state [2]: Liquid
Compound: CCCCCCC(=O)CC(=O)c1ccccc1 [Heptanoylacetophenone, heptanoyl-benzoylmethane]

Vapor pressure at 180° C. [1]: 6 mmHg
Physical state [2]: Liquid
Compound: Isooctanoylbenzoylmethane [Isooctanoylacetophenone]

Solubility in "one-pack" additive ([3]; 3° C.): > 18 g/100 g solvent
Solubility in "one-pack" additive ([3]; 23° C.): > 18 g/100 g solvent
Solubility in "one-pack" additive ([3]; -15° C.): 9-18 g/100 g solvent
Vapor pressure at 180° C. [1]: 5.6 mmHg
Solubility in dioctyl phthalate, "DOP" ([5]; 3° C.): 50-100 g/100 g solvent
Solubility in dioctyl phthalate, "DOP" ([5]; 23° C.): > 100 g/100 g solvent
Solubility in dioctyl phthalate, "DOP" ([5]; -15° C.): 12-25 g/100 g solvent
Physical state [2]: Solid
Compound: CCCCCCCC(=O)CC(=O)c1ccccc1 [Octanoylacetophenone, Octanoylbenzoylmethane]

Compound: CC(C)CC(=O)CC(=O)c1ccccc1 [Isovaleroylacetophenone, isovalerylbenzoylmethane]
odor when degradation occurs [7]: intolerable odor
Vapor pressure at 180° C. [1]: 28 mmHg
LD50 [8]: 4880 mg/kg
Physical state [2]: Liquid

Vapor pressure at 180° C. [1]: 2 mmHg
Physical state [2]: Liquid
Compound: Isodecanoylacetophenone
